± gives the expanded uncertainty stated by the source.
Legend:
[1] = Molar enthalpy of transition or fusion; settings: Crystal; DSC
[2] = Crystal

Molar enthalpy of transition or fusion [1]: 8.27 ± 0.263 kcal/mol
mass density ([2]; 298.15 K, 101.33 kPa, Buoyancy - hydrostatic balance): 1594.7 ± 2.1 kg/m3
Normal melting temperature ([2]; DTA): 201.56 ± 1.1 °C
SMILES: O=C1NC(=O)c2cc([N+](=O)[O-])ccc21 [4-nitrophthalimide]

From the NIST ThermoML archive (doi:10.1021/acs.jced.6b00230)
